One series has as its target human D3 receptor (Homo sapiens (Human), UniProt P35462). The series is described as follows: Radioligand binding ([3H]-spiperone) to cloned receptors expressed in HEK-293 EBNA cells. To be noted: HEK293 EBNA cell membranes expressing human D3. Put shortly: (§1)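 Membranes from transiently transfected HEK293 EBNA cells incubated 1 h at RT with ten compound concentrations (10 μM–0.1 nM). D2/D3: [3H]-spiperone ~0.7/0.5 nM, Tris–NaCl–Mg/Ca buffer pH 7.4; 5-HT2A: [3H]-ketanserin 1.1 nM, Tris–MgCl2–EGTA pH 7.4.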

A further series deals with human D2 receptor (Homo sapiens (Human), UniProt P14416). Described as above. Conditions: HEK293 EBNA cell membranes expressing human D2. In short, it runs like this:
as §1

The target of a further series is human 5-HT2A receptor (Homo sapiens (Human), UniProt P28223). The series is described as follows: Radioligand binding ([3H]-ketanserin) to cloned receptors expressed in HEK-293 EBNA cells. Conditions: HEK293 EBNA cell membranes expressing human 5-HT2A. Put shortly: as §1

One may read the Ki as the dissociation constant of the complex between target and ligand, obtained from inhibition or displacement. For orientation: melting point means the temperature of the solid-liquid transition.

human 5-HT2A receptor, sequence (P28223 whole entry): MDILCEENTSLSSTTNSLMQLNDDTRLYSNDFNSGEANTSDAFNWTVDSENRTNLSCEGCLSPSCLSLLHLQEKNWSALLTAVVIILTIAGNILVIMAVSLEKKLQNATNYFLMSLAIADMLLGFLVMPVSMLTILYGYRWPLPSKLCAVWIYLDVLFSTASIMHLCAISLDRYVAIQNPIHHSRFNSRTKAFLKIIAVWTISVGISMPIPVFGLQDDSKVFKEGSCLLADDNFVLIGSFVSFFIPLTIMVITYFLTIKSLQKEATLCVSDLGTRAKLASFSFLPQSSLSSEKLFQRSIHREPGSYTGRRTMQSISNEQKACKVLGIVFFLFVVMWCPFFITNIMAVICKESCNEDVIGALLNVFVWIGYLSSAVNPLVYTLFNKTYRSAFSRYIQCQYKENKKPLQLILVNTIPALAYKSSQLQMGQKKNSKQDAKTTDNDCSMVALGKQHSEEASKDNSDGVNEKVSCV
human D3 receptor, sequence (P35462 whole entry): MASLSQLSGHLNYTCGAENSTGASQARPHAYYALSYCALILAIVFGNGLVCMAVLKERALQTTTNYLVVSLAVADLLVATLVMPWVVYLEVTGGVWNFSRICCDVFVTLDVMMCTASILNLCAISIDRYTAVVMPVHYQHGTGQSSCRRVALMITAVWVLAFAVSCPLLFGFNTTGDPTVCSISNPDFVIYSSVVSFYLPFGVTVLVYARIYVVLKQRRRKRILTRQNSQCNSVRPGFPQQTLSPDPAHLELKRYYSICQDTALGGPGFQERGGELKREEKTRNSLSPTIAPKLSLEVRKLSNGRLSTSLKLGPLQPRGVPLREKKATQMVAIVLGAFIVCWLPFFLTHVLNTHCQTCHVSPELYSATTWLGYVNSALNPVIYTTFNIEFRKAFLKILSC
human D2 receptor, sequence (P14416 whole entry): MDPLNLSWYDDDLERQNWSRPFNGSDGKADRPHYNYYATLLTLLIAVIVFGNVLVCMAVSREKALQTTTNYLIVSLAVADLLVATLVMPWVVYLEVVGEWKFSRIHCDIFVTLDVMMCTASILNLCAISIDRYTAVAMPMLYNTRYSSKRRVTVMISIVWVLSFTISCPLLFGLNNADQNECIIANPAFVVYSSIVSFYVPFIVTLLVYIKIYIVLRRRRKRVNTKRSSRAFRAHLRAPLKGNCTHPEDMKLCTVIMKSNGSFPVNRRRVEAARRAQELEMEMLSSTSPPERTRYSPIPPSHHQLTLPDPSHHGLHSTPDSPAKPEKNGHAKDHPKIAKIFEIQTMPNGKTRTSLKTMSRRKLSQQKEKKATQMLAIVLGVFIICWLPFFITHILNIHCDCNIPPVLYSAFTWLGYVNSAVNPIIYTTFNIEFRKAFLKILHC

As for `CC#CC(=O)N[C@H]1CC[C@H](CCN2CCC(c3cccc4c3CCO4)CC2)CC1` [Example 86, But-2-ynoic acid trans-(4-{2-[4-(2,3-dihydro-benzofuran-4-yl)-piperidin-1-yl]-ethyl}-cyclohexyl)-amide], the melting point came out at 195 °C. The inhibition constant Ki on human D3 receptor came out at 7.3 nM. Besides, the inhibition constant (Ki) at human D2 receptor turned out to be 118 nM. Also, at human 5-HT2A receptor, the inhibitory constant (Ki) was found to be 45.9 nM.

For the molecule `O=CN[C@H]1CC[C@H](CCN2CCC(c3cccc4c3CCO4)CC2)CC1` [Example 87, trans-N-(4-{2-[4-(2,3-Dihydro-benzofuran-4-yl)-piperidin-1-yl]-ethyl}-cyclohexyl)-formamide], the melting point was found to be 142 °C. Also, the Ki on human D3 receptor came to 11.5 nM. Also, the Ki on human D2 receptor is 167 nM. In addition, the inhibition constant (Ki) at human 5-HT2A receptor amounted to 107 nM.

`CC(C)(C)Oc1ccc(C(=O)N[C@H]2CC[C@H](CCN3CCC(c4cccc5c4CCO5)CC3)CC2)cc1` [Example 88, trans-4-tert-Butoxy-N-(4-{2-[4-(2,3-dihydro-benzofuran-4-yl)-piperidin-1-yl]-ethyl}-cyclohexyl)-benzamide] gave a melting point of 216 °C. In addition, the Ki at human D3 receptor stood at 22.2 nM. Further, at human D2 receptor, the “D2 Ki” value is “inactive”. In addition, the inhibition constant Ki at human 5-HT2A receptor came to 42.8 nM.

`O=C(N[C@H]1CC[C@H](CCN2CCC(c3cccc4c3CCO4)CC2)CC1)c1ccc(Cl)cc1Cl` [Example 89, trans-2,4-Dichloro-N-(4-{2-[4-(2,3-dihydro-benzofuran-4-yl)-piperidin-1-yl]-ethyl}-cyclohexyl)-benzamide] came in with a melting point of 188 °C. The Ki at human D3 receptor is 8.28 nM. The Ki on human D2 receptor is 234 nM. Further, at human 5-HT2A receptor, the inhibition constant (Ki) was found to be 31.5 nM.

`O=C(N[C@H]1CC[C@H](CCN2CCC(c3cccc4c3CCO4)CC2)CC1)c1ccc(-n2cccc2)cc1` [Example 90, trans-N-(4-{2-[4-(2,3-Dihydro-benzofuran-4-yl)-piperidin-1-yl]-ethyl}-cyclohexyl)-4-pyrrol-1-yl-benzamide]: the melting point worked out at 228 °C. Also, the inhibition constant (Ki) at human D3 receptor came to 10.5 nM. The Ki at human D2 receptor is 85.1 nM. Besides, the inhibitory constant (Ki) on human 5-HT2A receptor was 30.4 nM.

The molecule `O=C(N[C@H]1CC[C@H](CCN2CCC(c3cccc4c3CCO4)CC2)CC1)c1ccc(-c2ccccc2)cc1` [Example 91, Biphenyl-4-carboxylic acid trans-(4-{2-[4-(2,3-dihydro-benzofuran-4-yl)-piperidin-1-yl]-ethyl}-cyclohexyl)-amide] returned a melting point of 241 °C. Besides, the inhibition constant (Ki) at human D3 receptor was 7.81 nM. For the same molecule, the Ki at human D2 receptor is 501 nM. Moreover, on human 5-HT2A receptor, the inhibitory constant (Ki) was 28.1 nM.

Consider `O=C(N[C@H]1CC[C@H](CCN2CCC(c3cccc4c3CCO4)CC2)CC1)c1ccc(-c2cccnc2)cc1` [Example 92, trans-N-(4-{2-[4-(2,3-Dihydro-benzofuran-4-yl)-piperidin-1-yl]-ethyl}-cyclohexyl)-4-pyridin-3-yl-benzamide], for which the melting point turned out to be 224 °C. For the same molecule, at human D3 receptor, the Ki is 5.35 nM. Besides, the inhibition constant Ki at human D2 receptor turned out to be 99.8 nM. For the same molecule, at human 5-HT2A receptor, the Ki worked out at 25.4 nM.

`O=C(Cc1noc2ccccc12)N[C@H]1CC[C@H](CCN2CCC(c3cccc4c3CCO4)CC2)CC1` [Example 93, trans-2-Benzo[d] isoxazol-3-yl-N-(4-{2-[4-(2,3-dihydro-benzofuran-4-yl)-piperidin-1-yl]-ethyl}-cyclohexyl)-acetamide]: the melting point is 214 °C. In addition, the inhibitory constant (Ki) on human D3 receptor was 3.21 nM. In addition, at human D2 receptor, the inhibition constant (Ki) is 244 nM. Moreover, the Ki at human 5-HT2A receptor amounted to 30.7 nM.

The molecule `O=C(Cc1ccc2c(c1)OCO2)N[C@H]1CC[C@H](CCN2CCC(c3cccc4c3CCO4)CC2)CC1` [Example 94, trans-2-Benzo[1,3]dioxol-5-yl-N-(4-{2-[4-(2,3-dihydro-benzofuran-4-yl)-piperidin-1-yl]-ethyl}-cyclohexyl)-acetamide] registered a melting point of 209 °C. Besides, the Ki at human D3 receptor worked out at 3.65 nM. Further, the inhibitory constant (Ki) at human D2 receptor stood at 721 nM. On human 5-HT2A receptor, the inhibition constant (Ki) is 45.3 nM.

On to `CS(=O)(=O)c1ccc(C(=O)N[C@H]2CC[C@H](CCN3CCC(c4cccc5c4CCO5)CC3)CC2)cc1` [Example 95, trans-N-(4-{2-[4-(2,3-Dihydro-benzofuran-4-yl)-piperidin-1-yl]-ethyl}-cyclohexyl)-4-methanesulfonyl-benzamide], for which the melting point amounted to 236 °C. Moreover, the Ki at human D3 receptor amounted to 14 nM. Moreover, the Ki on human D2 receptor is 162 nM. For the same molecule, the Ki on human 5-HT2A receptor came to 14.7 nM.

The values above are taken from patent publication US8877778B2, “Benzofurane compounds” (Hoffmann-La Roche Inc., priority 2010, dated 2014).
